Data published in ChEMBL document CHEMBL1128738, “Sigma ligands with subnanomolar affinity and preference for the sigma 2 binding site. 1. 3-(omega-aminoalkyl)-1H-indoles” (J Med Chem, 1995).
pIC50: −log10 of the molar value.

Experiments:
[1] = target: Sigma non-opioid intracellular receptor 1 (Rattus norvegicus, UniProt Q9R0C9); assay: Binding affinity towards sigma receptor binding site 1 using [3H](+)-pentazocine
[2] = target: Sigma non-opioid intracellular receptor 1 (Rattus norvegicus) (UniProt Q9R0C9); assay: Ratio of the binding affinities for sigma-1 and sigma 2 type receptors, ratio of IC50
Sequence of Sigma non-opioid intracellular receptor 1 (Rattus norvegicus) (Q9R0C9 whole entry): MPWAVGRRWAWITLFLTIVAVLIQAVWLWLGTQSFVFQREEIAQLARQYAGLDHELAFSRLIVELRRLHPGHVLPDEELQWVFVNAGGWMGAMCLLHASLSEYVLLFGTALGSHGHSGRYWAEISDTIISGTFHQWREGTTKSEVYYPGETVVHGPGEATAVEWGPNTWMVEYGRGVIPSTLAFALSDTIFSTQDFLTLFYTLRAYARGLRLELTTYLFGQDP

Sigma 2 receptor = assay: Binding affinity towards sigma receptor binding site 2 using [3H]DTG of whole rat brain homogenates except cerebellum; type: tissue-based
[3] = target: T1, 5-hydroxytryptamine receptor 1A (Rattus norvegicus, UniProt P19327); assay: Binding affinity towards 5-hydroxytryptamine 1A receptor binding site using [3H]8-OH-DPAT.
T1 sequence (P19327 whole entry): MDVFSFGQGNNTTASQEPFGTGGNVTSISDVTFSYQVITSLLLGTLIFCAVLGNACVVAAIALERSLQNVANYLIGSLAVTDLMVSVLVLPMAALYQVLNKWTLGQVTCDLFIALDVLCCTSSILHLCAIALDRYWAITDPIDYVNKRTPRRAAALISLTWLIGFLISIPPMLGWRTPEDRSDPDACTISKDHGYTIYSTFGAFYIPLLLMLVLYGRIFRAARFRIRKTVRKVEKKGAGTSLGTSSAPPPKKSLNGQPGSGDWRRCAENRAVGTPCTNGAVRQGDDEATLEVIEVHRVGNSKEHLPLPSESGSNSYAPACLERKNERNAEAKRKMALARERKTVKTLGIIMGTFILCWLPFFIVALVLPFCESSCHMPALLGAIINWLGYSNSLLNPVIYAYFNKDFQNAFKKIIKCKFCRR

[4] = target: 5-hydroxytryptamine receptor 2A (Rattus norvegicus, UniProt P14842); assay: Binding affinity towards 5-hydroxytryptamine 2A receptor binding site using [3H]ketanserin.
Sequence of 5-hydroxytryptamine receptor 2A (P14842 whole entry): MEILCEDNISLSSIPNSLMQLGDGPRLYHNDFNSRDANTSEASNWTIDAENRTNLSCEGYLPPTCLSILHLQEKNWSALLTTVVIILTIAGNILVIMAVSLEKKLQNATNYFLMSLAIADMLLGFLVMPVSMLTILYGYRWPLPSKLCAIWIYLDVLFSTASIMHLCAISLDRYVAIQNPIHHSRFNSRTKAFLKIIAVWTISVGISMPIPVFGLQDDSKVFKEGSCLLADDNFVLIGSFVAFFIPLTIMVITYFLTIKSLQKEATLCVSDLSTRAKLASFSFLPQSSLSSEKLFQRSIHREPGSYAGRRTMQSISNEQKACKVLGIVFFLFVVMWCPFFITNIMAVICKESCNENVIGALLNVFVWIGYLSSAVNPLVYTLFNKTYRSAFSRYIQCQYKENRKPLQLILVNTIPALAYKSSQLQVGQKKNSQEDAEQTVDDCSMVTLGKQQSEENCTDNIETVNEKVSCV

[5] = target: T2, Adrenergic receptor alpha-1 (Rattus norvegicus, UniProt P15823+P23944+P43140); assay: Binding affinity towards Alpha-1 adrenergic receptor binding site using [3H]prazosin.; type: protein assay
T2 sequence (P15823 whole entry): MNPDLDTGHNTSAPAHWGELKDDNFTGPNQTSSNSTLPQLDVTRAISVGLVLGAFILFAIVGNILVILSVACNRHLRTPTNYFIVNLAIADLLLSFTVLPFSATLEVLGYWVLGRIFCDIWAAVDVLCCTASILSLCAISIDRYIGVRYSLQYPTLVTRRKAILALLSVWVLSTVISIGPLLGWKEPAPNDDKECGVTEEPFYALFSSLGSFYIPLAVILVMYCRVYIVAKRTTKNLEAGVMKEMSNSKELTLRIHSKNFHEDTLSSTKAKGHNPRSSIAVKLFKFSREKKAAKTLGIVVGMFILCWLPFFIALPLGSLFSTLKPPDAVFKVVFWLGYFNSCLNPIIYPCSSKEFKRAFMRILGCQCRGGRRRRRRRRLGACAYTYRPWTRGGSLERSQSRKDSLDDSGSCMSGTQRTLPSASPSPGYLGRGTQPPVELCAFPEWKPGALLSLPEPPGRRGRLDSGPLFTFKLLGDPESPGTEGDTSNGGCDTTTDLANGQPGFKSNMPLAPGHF
T2 sequence (P23944 whole entry): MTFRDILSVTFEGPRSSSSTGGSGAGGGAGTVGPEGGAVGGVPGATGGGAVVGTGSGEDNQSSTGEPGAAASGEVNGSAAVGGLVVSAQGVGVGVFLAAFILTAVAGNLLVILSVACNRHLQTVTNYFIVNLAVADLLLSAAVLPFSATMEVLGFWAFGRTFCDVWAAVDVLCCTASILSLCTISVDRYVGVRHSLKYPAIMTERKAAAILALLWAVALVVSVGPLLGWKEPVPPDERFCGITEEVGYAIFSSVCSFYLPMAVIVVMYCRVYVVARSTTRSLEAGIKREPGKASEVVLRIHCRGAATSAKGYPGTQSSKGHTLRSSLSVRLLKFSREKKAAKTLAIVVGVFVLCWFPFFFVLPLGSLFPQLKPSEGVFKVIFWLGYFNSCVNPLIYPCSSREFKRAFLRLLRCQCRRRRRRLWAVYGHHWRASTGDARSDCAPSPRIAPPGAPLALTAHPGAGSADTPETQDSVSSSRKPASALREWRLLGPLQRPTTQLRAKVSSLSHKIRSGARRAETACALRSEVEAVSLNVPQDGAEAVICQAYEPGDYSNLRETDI
T2 sequence (P43140 whole entry): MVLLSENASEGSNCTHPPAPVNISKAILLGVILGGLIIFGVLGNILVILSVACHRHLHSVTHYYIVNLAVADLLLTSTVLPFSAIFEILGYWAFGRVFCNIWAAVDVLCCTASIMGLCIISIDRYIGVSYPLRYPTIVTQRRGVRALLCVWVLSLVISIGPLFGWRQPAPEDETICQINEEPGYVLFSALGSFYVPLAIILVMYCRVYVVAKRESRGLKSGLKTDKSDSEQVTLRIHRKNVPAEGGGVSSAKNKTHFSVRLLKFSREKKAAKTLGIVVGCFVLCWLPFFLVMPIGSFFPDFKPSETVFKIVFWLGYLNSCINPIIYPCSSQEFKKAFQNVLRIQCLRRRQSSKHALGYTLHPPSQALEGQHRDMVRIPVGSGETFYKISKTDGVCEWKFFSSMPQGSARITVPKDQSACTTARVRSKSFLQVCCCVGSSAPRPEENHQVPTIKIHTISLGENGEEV

D(2) dopamine receptor = D(2) dopamine receptor (Rattus norvegicus, UniProt P61169); assay: Binding affinity towards Dopamine receptor D2 binding site using [3H]spiroperidol.
Sequence of D(2) dopamine receptor (P61169 whole entry): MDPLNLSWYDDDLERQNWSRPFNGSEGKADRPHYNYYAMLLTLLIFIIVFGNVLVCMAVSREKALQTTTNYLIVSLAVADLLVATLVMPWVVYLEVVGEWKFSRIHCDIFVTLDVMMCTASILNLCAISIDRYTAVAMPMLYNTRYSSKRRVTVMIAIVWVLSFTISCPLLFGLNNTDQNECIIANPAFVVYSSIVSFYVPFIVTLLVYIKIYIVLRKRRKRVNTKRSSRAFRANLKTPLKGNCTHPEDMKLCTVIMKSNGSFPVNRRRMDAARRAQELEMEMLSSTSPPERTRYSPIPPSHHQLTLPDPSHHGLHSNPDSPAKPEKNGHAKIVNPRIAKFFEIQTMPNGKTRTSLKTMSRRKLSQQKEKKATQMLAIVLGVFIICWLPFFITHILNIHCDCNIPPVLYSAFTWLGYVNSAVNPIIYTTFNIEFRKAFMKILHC

[6] = target: T2, Adrenergic receptor alpha-1; assay: Binding affinity for Alpha-1 adrenergic receptor with [3H]prazosin; type: protein assay

Sequence of Sigma non-opioid intracellular receptor 1 (Q9R0C9 whole entry): as the sequence (Q9R0C9 whole entry) above

Row | SMILES | pIC50 [1] | Ratio [2] | pIC50 (Sigma 2 receptor) | pIC50 [3] | pIC50 [4] | IC50 [5] [nM] | pIC50 (D(2) dopamine receptor) | IC50 [6] [nM]
1 | c1ccc2c(c1)COC21CCN(CCCCc2cn(-c3ccncc3)c3ccccc23)CC1 | 7.85 | 34 | 9.39 |  |  |  |  | 
2 | COc1ccccc1C1CCN(CCCCc2c[nH]c3ccccc23)CC1 | 8.35 |  | 8.48 | 7.25 | 7.08 | 11 | 7.70 | 
3 | c1ccc(CN2CCC3(CCCc4ccccc43)CC2)cc1 | 9.59 |  | 7.92 | < 4.00 | 5.15 | 1000 |  | 
4 | Fc1ccc(-n2cc(CCCCN3CCN(c4ccccc4)CC3)c3ccccc32)cc1 | 7.57 | 39 | 9.16 |  |  |  |  | 
5 | Cn1cc(CCCCN2CCC3(CC2)OCc2ccccc23)c2ccccc21 | 8.68 | 7 | 9.52 |  |  |  |  | 
6 | Fc1ccc(N2CCN(CCCCc3cn(-c4ccc(F)cc4)c4ccccc34)CC2)cc1 | 6.36 |  | 8.12 | < 5.00 | 6.60 | 420 | 5.52 | 
7 | c1ccc(C2CCN(CCCCc3c[nH]c4ccccc34)CC2)cc1 | 8.82 |  | 9.32 | 6.96 | 7.60 | 14 | 7.35 | 
8 | Cc1ccc(S(=O)(=O)n2cc(CCCCN3CCC4(CC3)OCc3ccccc34)c3ccccc32)cc1 | 8.00 | 59 | 9.77 |  |  |  |  | 
9 | COc1ccccc1N1CCN(CCCCc2c[nH]c3ccccc23)CC1 | 7.85 |  | 7.68 |  | 6.82 | 2.7 | 7.82 | 
10 | O=C(CC1CCN(CC2CC2)CC1)c1ccc(F)cc1 |  |  |  | 4.36 | 7.18 | 21 |  | 
11 | CS(=O)(=O)n1cc(CCCCN2CCC3(CC2)OCc2ccccc23)c2ccccc21 | 8.89 | 26 | 10.30 |  |  |  |  | 
12 | c1ccc2c(c1)COC21CCN(CCCCc2cn(-c3ccsc3)c3ccccc23)CC1 | 8.15 | 28 | 9.60 |  |  |  |  | 
13 | Fc1ccc(C2=CC3CCC(C2)N3CCCCc2cn(-c3ccc(F)cc3)c3ccccc23)cc1 (stereo not given) | 5.92 |  | 8.60 | < 5.00 | 5.43 | 350 | 5.10 | 
14 | c1csc(-n2cc(CCCCN3CCC4(CC3)OCc3ccccc34)c3ccccc32)c1 | 8.11 | 32 | 9.62 |  |  |  |  | 
15 | CC(=O)n1cc(CCCCN2CCC3(CC2)OCc2ccccc23)c2ccccc21 | 8.24 | 27 | 9.68 |  |  |  |  | 
16 | Fc1ccc(-n2cc(CCCCN3CCC(c4ccccc4)CC3)c3ccccc32)cc1 | 7.36 | 100 | 9.36 |  |  |  |  | 
17 | Fc1ccc(-n2cc(CCCN3CCC4(CC3)OCc3ccccc34)c3ccccc32)cc1 | 8.00 | 3.6 | 8.55 |  |  |  |  | 
18 | c1ccc2c(c1)COC21CCN(CCCCc2c[nH]c3ccccc23)CC1 | 8.60 |  | 9.39 | 6.89 | 6.44 | 30 | 5.89 | 
19 | Fc1ccc(-n2cc(CCN3CCC4(CC3)OCc3ccccc34)c3ccccc32)cc1 | 7.82 | 5 | 8.52 |  |  |  |  | 
20 | c1ccc(Cn2cc(CCCCN3CCC4(CC3)OCc3ccccc34)c3ccccc32)cc1 | 8.28 | 11 | 9.32 |  |  |  |  | 
21 | Fc1ccc(C2CCN(CCCCc3cn(-c4ccc(F)cc4)c4ccccc34)CC2)cc1 |  |  | 9.57 | 4.66 | 6.57 | 220 | 5.38 | 
22 | Fc1ccc(C2CCN(CCCCc3c[nH]c4ccccc34)CC2)cc1 | 8.85 |  | 8.40 | 7.57 | 7.47 | 20 | 6.80 | 
23 | OC(CCCN1CCN(c2ncc(F)cn2)CC1)c1ccc(F)cc1 (stereo not given) [BMY-14802] |  |  |  |  | 6.08 | 1500 | 5.08 | 
24 | Fc1ccc(-n2cc(CN3CCC4(CC3)OCc3ccccc34)c3ccccc32)cc1 | 8.52 | 0.64 | 8.33 |  |  |  |  | 
25 | Fc1ccc(C2=CCN(CCCCc3c[nH]c4ccccc34)CC2)cc1 | 8.12 |  | 8.64 | 7.15 | 7.57 | 24 | 7.29 | 
26 | c1ccc2c(c1)COC21CCN(CCCCc2cn(-c3nccs3)c3ccccc23)CC1 | 7.85 | 74 | 9.72 |  |  |  |  | 
27 | Fc1ccc(-n2cc(CCCCN3CCC4(CC3)OCc3ccccc34)c3ccccc32)cc1 [SIRAMESINE] |  |  |  | 4.68 | 5.70 |  | 6.10 | 330
28 | Fc1ccc(N2CCN(CCCCc3c[nH]c4ccccc34)CC2)cc1 | 8.25 |  | 8.89 | 7.43 | 7.85 | 12 | 6.74 | 
